Consider 24 compounds from BindingDB's records for doi:10.1021/jm00018a012 (Pfizer, 1995).

For orientation: IC50 means the midpoint of a concentration-inhibition curve. A high value points to weaker potency in that assay.

This experiment has as its target Platelet-activating factor receptor (Oryctolagus cuniculus). Nature of the experiment: In vitro antagonist activity against platelet activating factor (PAF) receptor, using washed rabbit platelets.
The compound `Cc1nn(C)c2c1N=C(c1ccc(-n3c(C)nc4cnccc43)cc1)CC(=O)N2C` [1,3,8-Trimethyl-5-[4-(2-methyl-imidazo[4,5-c]pyridin-1-yl)-phenyl]-6,8-dihydro-1H-pyrazolo[3,4-b][1,4]diazepin-7-one] yielded an IC50 of 17 nM.

As to `Cc1nn(C)c2c1N=C(c1ccc(-n3c(C)nc4cnccc43)cc1)CC(=O)N2` [1,3-Dimethyl-5-[4-(2-methyl-imidazo[4,5-c]pyridin-1-yl)-phenyl]-6,8-dihydro-1H-pyrazolo[3,4-b][1,4]diazepin-7-one], the IC50 turned out to be 26 nM.

The compound `Cc1nn(C)c2c1NC(=O)CC(c1ccc(-n3c(C)nc4cnccc43)cc1)=N2` [1,3-Dimethyl-7-[4-(2-methyl-imidazo[4,5-c]pyridin-1-yl)-phenyl]-4,6-dihydro-1H-pyrazolo[3,4-b][1,4]diazepin-5-one] gave an IC50 of 1 nM.

Regarding `Cc1cc2c(cc1C)-n1c(C)nnc1CC(c1ccc(-n3c(C)nc4cnccc43)cc1)=N2` [1,8,9-Trimethyl-5-[4-(2-methyl-imidazo[4,5-c]pyridin-1-yl)-phenyl]-4H-2,3,6,10b-tetraaza-benzo[e]azulene], half-maximal inhibition (IC50) required 2.4 nM.

In turn, `Cc1nc2cnccc2n1-c1ccc(C2=Nc3c(-c4ccccc4)nn(C)c3N(C)C(=O)C2)cc1` [1,8-Dimethyl-5-[4-(2-methyl-imidazo[4,5-c]pyridin-1-yl)-phenyl]-3-phenyl-6,8-dihydro-1H-pyrazolo[3,4-b][1,4]diazepin-7-one] registered a concentration for half-maximal inhibition (IC50) of 0.5 nM.

Compound `Cc1nc2cnccc2n1-c1ccc(C2=Nc3c(-c4ccccn4)nn(C)c3N(C)C(=O)C2)cc1` [1,8-Dimethyl-5-[4-(2-methyl-imidazo[4,5-c]pyridin-1-yl)-phenyl]-3-pyridin-2-yl-6,8-dihydro-1H-pyrazolo[3,4-b][1,4]diazepin-7-one] gave an IC50 of 14 nM.

The compound `Cc1nc2cnccc2n1-c1ccc(C2=Nc3c(-c4cccnc4)nn(C)c3N(C)C(=O)C2)cc1` [1,8-Dimethyl-5-[4-(2-methyl-imidazo[4,5-c]pyridin-1-yl)-phenyl]-3-pyridin-3-yl-6,8-dihydro-1H-pyrazolo[3,4-b][1,4]diazepin-7-one] displayed an IC50 of 2.4 nM.

In the case of `Cc1nc2cnccc2n1-c1ccc(C2=Nc3c(-c4ccncc4)nn(C)c3N(C)C(=O)C2)cc1` [1,8-Dimethyl-5-[4-(2-methyl-imidazo[4,5-c]pyridin-1-yl)-phenyl]-3-pyridin-4-yl-6,8-dihydro-1H-pyrazolo[3,4-b][1,4]diazepin-7-one], the IC50 was found to be 5.2 nM.

`Cc1nc2cnccc2n1-c1ccc(C2=Nc3c(-c4cccs4)nn(C)c3N(C)C(=O)C2)cc1` [1,8-Dimethyl-5-[4-(2-methyl-imidazo[4,5-c]pyridin-1-yl)-phenyl]-3-thiophen-2-yl-6,8-dihydro-1H-pyrazolo[3,4-b][1,4]diazepin-7-one] had an IC50 of 1.5 nM.

Turning to `Cc1nc2cnccc2n1-c1ccc(C2=Nc3c(-c4ccccc4)nn(C)c3NC(=O)C2)cc1` [1-Methyl-5-[4-(2-methyl-imidazo[4,5-c]pyridin-1-yl)-phenyl]-3-phenyl-6,8-dihydro-1H-pyrazolo[3,4-b][1,4]diazepin-7-one], the midpoint of inhibition, the IC50, lay at 0.6 nM.

Turning to `Cc1nc2cnccc2n1-c1ccc(C2=Nc3c(c(-c4ccccc4)nn3C)NC(=O)C2)cc1` [1-Methyl-7-[4-(2-methyl-imidazo[4,5-c]pyridin-1-yl)-phenyl]-3-phenyl-4,6-dihydro-1H-pyrazolo[3,4-b][1,4]diazepin-5-one], half-maximal inhibition (IC50) was put at 2.7 nM.

As to `Cc1nc2cnccc2n1-c1ccc(C2=Nc3c(C4CCCCC4)nn(C)c3N(C)C(=O)C2)cc1` [3-Cyclohexyl-1,8-dimethyl-5-[4-(2-methyl-imidazo[4,5-c]pyridin-1-yl)-phenyl]-6,8-dihydro-1H-pyrazolo[3,4-b][1,4]diazepin-7-one], half-maximal inhibition (IC50) was put at 0.7 nM.

As for `Cc1nc2cnccc2n1-c1ccc(C2=Nc3c(C4CCCCC4)nn4c3N(CCCC4)C(=O)C2)cc1` [3-Cyclohexyl-6-[4-(2-methyl-imidazo[4,5-c]pyridin-1-yl)-phenyl]-1,2,5,9-tetraaza-tricyclo[7.4.1.0*4,14*]tetradeca-2,4(14),5-trien-8-one], the IC50 worked out at 0.4 nM.

`Cc1nc2cnccc2n1-c1ccc(C2=Nc3c(CO)nn(C)c3N(C)C(=O)C2)cc1` [3-Hydroxymethyl-1,8-dimethyl-5-[4-(2-methyl-imidazo[4,5-c]pyridin-1-yl)-phenyl]-6,8-dihydro-1H-pyrazolo[3,4-b][1,4]diazepin-7-one] registered an IC50 of 14 nM.

`Cc1nc2cnccc2n1-c1ccc(C2=Nc3c(COCC(C)C)nn(C)c3N(C)C(=O)C2)cc1` [3-Isobutoxymethyl-1,8-dimethyl-5-[4-(2-methyl-imidazo[4,5-c]pyridin-1-yl)-phenyl]-6,8-dihydro-1H-pyrazolo[3,4-b][1,4]diazepin-7-one] gave an IC50 of 0.8 nM.

Take `Cc1nc2cnccc2n1-c1ccc(C2=Nc3c(C(C)C)nn(C)c3N(C)C(=O)C2)cc1` [3-Isopropyl-1,8-dimethyl-5-[4-(2-methyl-imidazo[4,5-c]pyridin-1-yl)-phenyl]-6,8-dihydro-1H-pyrazolo[3,4-b][1,4]diazepin-7-one]: it took 3.5 nM to reach half-maximal inhibition (IC50).

`Cc1cc(C)c2c(n1)N=C(c1ccc(-n3c(C)nc4cnccc43)cc1)CC(=O)N2` [7,9-Dimethyl-4-[4-(2-methyl-imidazo[4,5-c]pyridin-1-yl)-phenyl]-1,3-dihydro-pyrido[3,4-b][1,4]diazepin-2-one] registered a 50% inhibitory concentration (IC50) of 21 nM.

On to `Cc1cnc2n1-c1cc(Cl)c(Cl)cc1N=C(c1ccc(-n3c(C)nc4cnccc43)cc1)C2` [8,9-Dichloro-1-methyl-5-[4-(2-methyl-imidazo[4,5-c]pyridin-1-yl)-phenyl]-4H-3,6,10b-triaza-benzo[e]azulene], for which half-maximal inhibition (IC50) was put at 1.2 nM.

With `Cc1cn2c(n1)CC(c1ccc(-n3c(C)nc4cnccc43)cc1)=Nc1cc(Cl)c(Cl)cc1-2` [8,9-Dichloro-2-methyl-5-[4-(2-methyl-imidazo[4,5-c]pyridin-1-yl)-phenyl]-4H-3,6,10b-triaza-benzo[e]azulene], the IC50 was 0.3 nM.

Regarding `Cc1nc2cnccc2n1-c1ccc(C2=Nc3cc(Cl)c(Cl)cc3-n3ccnc3C2)cc1` [8,9-Dichloro-5-[4-(2-methyl-imidazo[4,5-c]pyridin-1-yl)-phenyl]-4H-3,6,10b-triaza-benzo[e]azulene], half-maximal inhibition (IC50) required 1.7 nM.

`Cc1cc2c(cc1C)-n1c(n[nH]c1=O)CC(c1ccc(-n3c(C)nc4cnccc43)cc1)=N2` [8,9-Dimethyl-5-[4-(2-methyl-imidazo[4,5-c]pyridin-1-yl)-phenyl]-2,4-dihydro-2,3,6,10b-tetraaza-benzo[e]azulen-1-one] yielded an IC50 of 55 nM.

The compound `Cc1cc2c(cc1C)-n1nnnc1CC(c1ccc(-n3c(C)nc4cnccc43)cc1)=N2` [8,9-Dimethyl-5-[4-(2-methyl-imidazo[4,5-c]pyridin-1-yl)-phenyl]-4H-1,2,3,6,10b-pentaaza-benzo[e]azulene] yielded an IC50 of 11 nM.

As for `Cc1cc2c(cc1C)-n1cnnc1CC(c1ccc(-n3c(C)nc4cnccc43)cc1)=N2` [8,9-Dimethyl-5-[4-(2-methyl-imidazo[4,5-c]pyridin-1-yl)-phenyl]-4H-2,3,6,10b-tetraaza-benzo[e]azulene], inhibition was half-maximal at 2.3 nM (IC50).

In turn, `Cc1cc2c(cc1C)-n1ccnc1CC(c1ccc(-n3c(C)nc4cnccc43)cc1)=N2` [8,9-Dimethyl-5-[4-(2-methyl-imidazo[4,5-c]pyridin-1-yl)-phenyl]-4H-3,6,10b-triaza-benzo[e]azulene] displayed an IC50 of 1.3 nM.
